Test results from patent publication EP0869800B1, “ACYLGLYCINE- AND ZINC SALT-BASED ANTIBACTERIAL COMPOUND” (PIERRE FABRE DERMO-COSMETIQUE, priority 1995, dated 1997).

Tests used:
[1] = tested on: Staphylococcus aureus 6538 P; assay: Minimal inhibitory concentration (CMI), serial half dilutions in broth on microplate; format: cell-based; conditions: product alone; 24 h at 32°C; 10^6 germes par ml
Experimental: • . souche: Staphylococcus aureus 6538 P • milieu de culture : • . bouillon et gélose trypticase soja (Biomérieux) • . bouillon Trypticase soja + 10% Tween 80. • appareillage : • . microplaques stériles Nunc R Nunclon à 96 puits • . eau distillée stérile • . tubes à essais stériles • . étuve à 32°C (Jouan) • . spectrophotomètre PRIM et cuves adaptées • . billes de verres stériles • produits : Les solutions-mères des produits cités ci-dessous ont été préparés comme suit : • . Zn SO 4: solution aqueuse à 5% • . n-octanoyl-glycine : solution à 1% dans 30% butylène glycol puis chauffage jusqu'à dissolution homogène. • méthodes : • CMI : Concentration Minimale Inhibitrice Une distribution de 100 µl de bouillon Trypticase soja est réalisée dans chaque cupule de la microplaque stérile A. Une distribution de 100 µl des différents produits a lieu dans une cupule (on est alors à 50% d'actif) (une cupule par produit). Une série de dilutions sériées au demi est ensuite réalisée sur microplaque. Un témoin stérilité du milieu et un autre témoin de la vigueur de la souche sont réalisés en parallèle sur la microplaque. […]

[2] = tested on: Staphylococcus aureus 6538 P; assay: Study of the association by the checkerboard method on microplate (CMI in association, FiC, FiC Index); format: cell-based; conditions: for FiC: CMI of the product in association / CMI of the product alone
Experimental: • . souche: Staphylococcus aureus 6538 P • milieu de culture : • . bouillon et gélose trypticase soja (Biomérieux) • . bouillon Trypticase soja + 10% Tween 80. • appareillage : • . microplaques stériles Nunc R Nunclon à 96 puits • . eau distillée stérile • . tubes à essais stériles • . étuve à 32°C (Jouan) • . spectrophotomètre PRIM et cuves adaptées • . billes de verres stériles • produits : Les solutions-mères des produits cités ci-dessous ont été préparés comme suit : • . Zn SO 4: solution aqueuse à 5% • . n-octanoyl-glycine : solution à 1% dans 30% butylène glycol puis chauffage jusqu'à dissolution homogène. • méthodes : • CMI : Concentration Minimale Inhibitrice Une distribution de 100 µl de bouillon Trypticase soja est réalisée dans chaque cupule de la microplaque stérile A. Une distribution de 100 µl des différents produits a lieu dans une cupule (on est alors à 50% d'actif) (une cupule par produit). Une série de dilutions sériées au demi est ensuite réalisée sur microplaque. Un témoin stérilité du milieu et un autre témoin de la vigueur de la souche sont réalisés en parallèle sur la microplaque. L'ensemencement de la microplaque (A) a lieu sous la hotte après préparation de l'inoculum bactérien comme suit : Les souches ayant été préalablement repiquées la veille sur gélose Trypticase soja, un inoculum 10^8 germes/ml est dispersé dans l'eau distillée stérile puis agité au vortex. Les billes de verre assurant une bonne dispersion des souches, la mesure de la densité optique permet de préparer un inoculum adéquat par rapport à un étalonnage pré-établi et validé. La répartition de la souche a lieu dans une deuxième microplaque (B) stérile par distribution de 100 µl d'inoculum par microcupule. L'ensemencement a lieu par un repiquage de la microplaque (B) vers la microplaque (A), il se réalise ainsi une dilution au 1/100 de l'inoculum : la microplaque A contenant alors 10^6 germes par ml, peut être mise à l'étuve 24 h à 32°C. […]

SMILES	CMI Seuls [1]	FiC [2]	CMI Associés ([2]; product in association (checkerboard), incubation at 32°C)
CCCCCCCC(=O)NCC(=O)O [n octanoyl glycine, n-octanoyl-glycine]	0,25	0,5	
O=S(=O)([O-])[O-].[Zn+2] [Zn SO 4, sulfate de zinc]	0,15	0,20	0,03
